Our source for the melting point and IC50 values is patent US6919377B2, “Cyclohexylamine derivative as subtype selective NMDA receptor antagonists” (Warner Lambert Company LLC, priority 2000, dated 2005).

SMILES strings stand for the structures. Where a name gives a salt, the structure may show the parent alone. Read-outs that look alike come from different tables or passages of the source.

One data set deals with NR1a/NR2B (Rattus norvegicus, UniProt P35439+Q00960). Put plainly: Electrophysiological assay at NMDA receptor subunits expressed in Xenopus oocytes (two-electrode voltage clamp). Format: cell-based. The protocol:
The clones were transformed into appropriate host bacteria and plasmid preparations were made with conventional DNA purification techniques. A sample of each clone was linearized by restriction enzyme digestion […] was synthesized with T3 RNA polymerase. The cRNA was diluted to 400 ng/μL and stored in 1 μL aliquots at −80° C. until injection.
The Xenopus Oocyte Expression System. […] Follicle-enclosed oocytes were micro-injected with 1:1 mixtures of NR1A:NR2A, 2B or 2C.; injecting 1 to 10 ng of RNA encoding each receptor subunit. NR1A encoding RNA was injected alone at ˜20 ng. Oocytes were stored in Barth's medium containing (in mM): NaCl, 88; KCl, 1; CaCl2, 0.41; Ca (NO3)2, 0.33; MgSO4, 0.82; NaHCO3, 2.4; HEPES 5, pH 7.4, with 0.11 mg/ml gentamicin sulphate. While oocytes were still surrounded by enveloping ovarian tissues, the Barth's medium was supplemented with 0.1% bovine serum.
Drugs were applied by bath perfusion. Using oocytes expressing different subunit combinations of NMDA receptor, NMDA currents were activated by co-application of glutamate (100 μM) and glycine (1-100 μM). Inhibitory potency of the novel antagonists was assessed on responses elicited by fixed concentrations of glutamate and glycine, by measuring reductions in current induced by progressively increasing concentrations of antagonist.
Concentration-inhibition curves were fit with Equation 1. […] For incomplete curves analysis by fitting was unreliable and IC50 values were calculated by simple regression over linear portions of the curves (Origin: Microcal Software).

[1] abbreviates: Table 1, cloned rat NMDA receptor subunits in Xenopus oocytes, currents activated by glutamate (100 μM) and glycine (1-100 μM), read-out: NR1a/NR2B Oocyte IC50.
Where [2] appears, read: Table 2, head names no subunit, electrophysiological assay results, read-out: IC50.
[3] abbreviates: Table 3, cloned rat NMDA receptor subunits in Xenopus oocytes, read-out: NR1a/NR2B Oocyte IC50.

NR1a/NR2B, sequence (Q00960 27-1482, other chains not shown): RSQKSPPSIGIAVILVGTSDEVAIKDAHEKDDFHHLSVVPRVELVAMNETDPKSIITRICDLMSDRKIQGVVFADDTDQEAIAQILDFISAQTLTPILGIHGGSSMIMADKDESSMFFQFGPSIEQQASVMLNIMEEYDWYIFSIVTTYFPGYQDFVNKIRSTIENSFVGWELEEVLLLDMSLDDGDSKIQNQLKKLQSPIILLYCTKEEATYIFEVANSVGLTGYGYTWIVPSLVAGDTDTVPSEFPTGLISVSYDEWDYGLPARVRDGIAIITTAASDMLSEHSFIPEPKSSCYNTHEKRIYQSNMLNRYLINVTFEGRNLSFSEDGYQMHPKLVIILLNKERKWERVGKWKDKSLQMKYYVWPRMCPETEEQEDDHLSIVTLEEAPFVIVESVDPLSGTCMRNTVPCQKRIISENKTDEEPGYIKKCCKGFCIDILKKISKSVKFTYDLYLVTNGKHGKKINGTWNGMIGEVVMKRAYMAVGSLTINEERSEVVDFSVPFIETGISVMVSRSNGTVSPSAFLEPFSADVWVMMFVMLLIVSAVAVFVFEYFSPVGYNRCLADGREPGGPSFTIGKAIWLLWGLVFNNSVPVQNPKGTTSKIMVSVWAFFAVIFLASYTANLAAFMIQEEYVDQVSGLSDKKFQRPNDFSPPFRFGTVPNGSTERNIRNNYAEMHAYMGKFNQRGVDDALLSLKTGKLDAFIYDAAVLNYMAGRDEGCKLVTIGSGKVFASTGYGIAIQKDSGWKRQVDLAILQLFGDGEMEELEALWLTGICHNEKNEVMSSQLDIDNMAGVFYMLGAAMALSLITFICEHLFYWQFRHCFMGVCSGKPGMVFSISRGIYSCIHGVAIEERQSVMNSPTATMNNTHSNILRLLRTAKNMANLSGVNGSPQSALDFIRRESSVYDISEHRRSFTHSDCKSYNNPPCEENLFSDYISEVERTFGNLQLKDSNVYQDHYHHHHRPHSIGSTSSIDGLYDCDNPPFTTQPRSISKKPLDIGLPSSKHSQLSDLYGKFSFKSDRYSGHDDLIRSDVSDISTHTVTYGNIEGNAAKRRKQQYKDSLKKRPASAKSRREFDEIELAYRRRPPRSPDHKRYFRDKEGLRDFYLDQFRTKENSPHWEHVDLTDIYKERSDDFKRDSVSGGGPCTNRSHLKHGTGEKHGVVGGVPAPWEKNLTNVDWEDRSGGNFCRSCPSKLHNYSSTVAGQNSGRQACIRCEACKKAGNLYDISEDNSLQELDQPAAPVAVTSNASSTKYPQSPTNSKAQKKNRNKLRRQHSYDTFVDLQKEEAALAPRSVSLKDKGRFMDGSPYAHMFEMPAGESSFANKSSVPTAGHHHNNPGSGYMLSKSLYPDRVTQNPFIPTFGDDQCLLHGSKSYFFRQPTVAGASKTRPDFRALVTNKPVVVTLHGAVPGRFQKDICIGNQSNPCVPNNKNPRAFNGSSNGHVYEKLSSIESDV

`Oc1ccc([C@H]2CC[C@H](NCCCCCc3ccccc3)CC2)cc1` (as salt: HCl) [Example 9, 4-[4-(5-Phenylpentylamino)cyclohexyl]phenol] came in with a melting point of 252 to 260 °C.
Molecule `COc1ccc(CCCN[C@H]2CC[C@H](c3ccc(O)cc3)CC2)cc1` (as salt: HCl) [Example 28, Trans-4-{4-[3-(4-methoxyphenyl)propylamino]cyclohexyl}phenol] returned a melting point of 235 to 241 °C.
`Oc1ccc([C@H]2CC[C@H](N(CCCc3ccccc3)Cc3ccccc3)CC2)cc1` (as salt: HCl) [Example 29, 4-{4-[benzyl(3-phenylpropyl)amino]cyclohexyl}phenol] came in with a melting point of 259 to 264 °C.
`CCN(CCCc1ccccc1)[C@H]1CC[C@H](c2ccc(O)c(CN)c2)CC1` (as salt: HCl) [Example 31, 2-aminomethyl-4-{4-[ethyl(3-phenylpropyl)amino]cyclohexyl}phenol] registered a melting point of 168 to 173 °C.
For the molecule `Oc1ccc([C@H]2CC[C@H](NCCNc3ccccc3)CC2)cc1` (as salt: maleate) [Example 25, Trans-4-[4-(2-phenylaminoethylamino)cyclohexyl]phenol], the melting point was 180 to 184 °C.
`CCN(CCCc1ccccc1)[C@H]1CC[C@H](c2ccc(O)cc2)CC1` (as salt: salt) [Example 26, Trans-4-{4-[N-ethyl-N-(3-phenylpropyl)amino]cyclohexyl) phenol] returned a melting point of 192 to 194 °C.
For `CC(C)N(CCCc1ccccc1)[C@H]1CC[C@H](c2ccc(O)cc2)CC1` (as salt: salt) [Example 27, Trans-4-{4-[N-isopropyl-N-(3-phenylpropyl)amino]cyclohexyl}phenol], the melting point is 146 to 154 °C.
As for `CN(CCOc1ccccc1)[C@H]1CC[C@H](c2ccc(O)cc2)CC1` (as salt: salt) [Example 30, 4-{4-[methyl(2-phenoxyethyl)amino]cyclohexyl}phenol], the melting point is 216 to 220 °C.
Molecule `Oc1ccc([C@H]2CC[C@@H](NCCCCc3ccccc3)CC2)cc1` [Example 1a, cis-4-[4-(4-Phenylbutylamino)cyclohexyl]phenol] came in with a melting point of 128 to 131 °C. The IC50 on NR1a/NR2B (setting [1]) is 900 nM.
As to `Oc1ccc([C@H]2CC[C@H](NCCCCc3ccccc3)CC2)cc1` [Example 1b, trans-4-[4-(4-Phenylbutylamino)cyclohexyl]phenol], at NR1a/NR2B (setting [1]), the IC50 worked out at 35 nM.
Regarding `Oc1ccc([C@H]2CC[C@@H](NCCCc3ccccc3)CC2)cc1` [Example 2a, cis-4-[4-(3-Phenylpropylamino)cyclohexyl]phenol], the IC50 at NR1a/NR2B (setting [1]) was 600 nM.
Still for that read-out and setting: next, `Oc1ccc([C@H]2CC[C@H](NCCCc3ccccc3)CC2)cc1` [Example 2b, trans-4-[4-(3-Phenylpropylamino)cyclohexyl]phenol]: 34 nM.
In turn, `Oc1ccc([C@H]2CC[C@@H](NCCc3ccccc3)CC2)cc1` [Example 3a, cis-4-(4-Phenethylaminocyclohexyl)phenol] showed a melting point of 155 to 160 °C. At NR1a/NR2B (setting [1]), the IC50 is 830 nM.
For the molecule `Oc1ccc([C@H]2CC[C@H](NCCc3ccccc3)CC2)cc1` [Example 3b, trans-4-(4-Phenethylamiocyclohexyl)phenol], the IC50 on NR1a/NR2B (setting [1]) amounted to 450 nM.
Take `Oc1ccc([C@H]2CC[C@@H](NCc3ccccc3)CC2)cc1` [Example 4a, cis-4-(4-Benzylaminocyclohexyl)phenol]: the melting point fell in the range of 107 to 110 °C. The IC50 at NR1a/NR2B (setting [1]) came to 70000 nM.
In the case of `Oc1ccc([C@H]2CC[C@H](NCc3ccccc3)CC2)cc1` [Example 4b, trans-4-(4-Benzylaminocyclohexyl)phenol], the melting point lay in the range of 168 to 172 °C. Moreover, at NR1a/NR2B (setting [1]), the IC50 is 43000 nM.
Consider `Oc1ccc([C@H]2CC[C@H](NCCc3ccc(F)cc3)CC2)cc1` [Example 5b, trans-4-{4-[2-(4-Fluorophenyl)ethylamino]cyclohexyl}phenol], for which, on NR1a/NR2B (Table 4, cloned rat NMDA receptor subunits in Xenopus oocytes, read-out: NR1a/NR2B Oocyte IC50), the IC50 amounted to 750 nM.
Consider `CC(CCc1ccccc1)N[C@H]1CC[C@@H](c2ccc(O)cc2)CC1` (stereo partly drawn) [Example 6a, cis-4-[4-(1-Methyl-3-phenylpropylamino)cyclohexyl]phenol], for which the IC50 at NR1a/NR2B (setting [2]) was found to be 600 nM.
Still for that read-out and setting: next, `CC(CCc1ccccc1)N[C@H]1CC[C@H](c2ccc(O)cc2)CC1` (stereo partly drawn) [Example 6b, trans-4-[4-(1-Methyl-3-phenylpropylamino)cyclohexyl]phenol]: 100 nM.
On to `C[C@H](CCc1ccccc1)N[C@H]1CC[C@H](c2ccc(O)cc2)CC1` [Example 6c, trans-4-[4-((R)-1-Methyl-3-phenylpropylamino)cyclohexyl]phenol], for which the melting point is 152 to 160 °C. Moreover, the IC50 on NR1a/NR2B (setting [2]) worked out at 60 nM.
`C[C@@H](CCc1ccccc1)N[C@H]1CC[C@H](c2ccc(O)cc2)CC1` [Example 6d, trans-4-[4-((S)-1-Methyl-3-phenylpropylamino)cyclohexyl]phenol] yielded a melting point of 165 to 170 °C. Further, the IC50 on NR1a/NR2B (setting [2]) was found to be 70 nM.
As for `Oc1ccc([C@H]2CC[C@@H](NCc3cccnc3)CC2)cc1` [Example 7a, cis-4-{4-[(Pyridin-3-ylmethyl)amino]cyclohexyl}phenol], the IC50 on NR1a/NR2B (setting [3]) was 135000 nM.
Regarding `Oc1ccc([C@H]2CC[C@H](NCc3cccnc3)CC2)cc1` [Example 7b, trans-4-{4-[(Pyridin-3-ylmethyl)amino]cyclohexyl}phenol], the IC50 on NR1a/NR2B (setting [3]) worked out at 100000 nM.
As for `Oc1ccc([C@H]2CC[C@H](NCCCCCc3ccccc3)CC2)cc1` [Example 9, 4-[4-(5-Phenylpentylamino)cyclohexyl]phenol], on NR1a/NR2B (setting [1]), the IC50 was found to be 350 nM.
In the case of `OC[C@@H](Cc1ccccc1)N[C@H]1CC[C@@H](c2ccc(O)cc2)CC1` [Example 10a, cis-4-[4-((R)-1-Hydroxymethyl-2-phenylethylamino)cyclohexyl]phenol], on NR1a/NR2B (setting [2]), the IC50 came to 29000 nM.
The same measure, in the same setting: next, `OC[C@@H](Cc1ccccc1)N[C@H]1CC[C@H](c2ccc(O)cc2)CC1` [Example 10b, trans-4-[4-((R)-1-Hydroxymethyl-2-phenylethylamino)cyclohexyl]phenol]: 5000 nM; `Oc1ccc([C@H]2CC[C@@H](NCCOc3ccccc3)CC2)cc1` [Example 11a, cis-4-[4-(2-Phenoxyethylamino)cyclohexyl]phenol]: 2000 nM.
In the case of `Oc1ccc([C@H]2CC[C@H](NCCOc3ccccc3)CC2)cc1` [Example 11b, trans-4-[4-(2-Phenoxyethylamino)cyclohexyl]phenol], the IC50 on NR1a/NR2B (setting [2]) was determined as 20 nM.
Regarding `C[C@@H](Cc1ccccc1)N[C@H]1CC[C@H](c2ccc(O)cc2)CC1` [Example 13, trans-4-[4-((S)-1-Methyl-2-phenylethylamino)cyclohexyl]phenol], the melting point fell in the range of 183 to 187 °C. Besides, the IC50 on NR1a/NR2B (setting [2]) was 16000 nM.
Take `Oc1ccc([C@H]2CC[C@@H](NCCCc3ccccn3)CC2)cc1` [Example 15a, cis-4-[4-(3-Pyridin-2-ylpropylamino)cyclohexyl]phenol]: the IC50 on NR1a/NR2B (setting [3]) is 11500 nM.
For `Oc1ccc([C@H]2CC[C@H](NCCCc3ccccn3)CC2)cc1` [Example 15b, trans-4′-(3-Pyridin-2-ylpropylamino)cyclohexylphenol], the IC50 at NR1a/NR2B (setting [3]) stood at 530 nM.
Turning to `CC(=O)N(Cc1ccccc1)[C@H]1CC[C@H](c2ccc(O)cc2)CC1` [Example 16, trans-N-Benzyl-N-[4-(4-hydroxyphenyl)cyclohexyl]acetamide], the melting point lay in the range of 227 to 235 °C. The IC50 on NR1a/NR2B (setting [2]) was 200000 nM.
`CC(=O)N(CCCc1ccccc1)[C@H]1CC[C@H](c2ccc(O)cc2)CC1` [Example 17, trans-N-[4-(4-Hydroxyphenyl)cyclohexyl]-N-(3-phenylpropyl)acetamide] returned a melting point of 175 to 180 °C. In addition, the IC50 at NR1a/NR2B (setting [2]) is 4400 nM.
`COC(=O)N(CCCc1ccccc1)[C@H]1CC[C@H](c2ccc(O)cc2)CC1` [Example 18, Trans-N-[4-(4-Hydroxyphenyl)cyclohexyl]-N-(3-phenylpropyl)carbamic acid methyl ester] came in with a melting point of 128 to 133 °C. Also, the IC50 on NR1a/NR2B (setting [2]) stood at 50 nM.
The like results for `COC(=O)N(Cc1ccccc1)[C@H]1CC[C@H](c2ccc(O)cc2)CC1` [Example 19, Trans-N-benzyl-N-[4-(4-hydroxyphenyl)cyclohexyl]carbamic acid methyl ester] were, in that order, 61 to 66 °C and 240000 nM.
Consider `Oc1ccc([C@H]2CC[C@H](NCC#Cc3ccccc3)CC2)cc1` [Example 23, Trans-4-[4-(3-phenylprop-2-ynylamino)cyclohexyl]phenol], for which the IC50 at NR1a/NR2B (setting [2]) turned out to be 50 nM.
For the molecule `Oc1ccc([C@H]2CC[C@H](NCCSc3ccccc3)CC2)cc1` [Example 24, 4-[4-(2-Phenylsulfanylethylamino)cyclohexyl]phenol], the IC50 at NR1a/NR2B (setting [2]) is 40 nM.
For the molecule `Oc1ccc([C@H]2CC[C@H](NCCNc3ccccc3)CC2)cc1` [Example 25, Trans-4-[4-(2-phenylaminoethylamino)cyclohexyl]phenol], the IC50 at NR1a/NR2B (setting [2]) worked out at 50 nM.
